Measurements taken from US8835458B2 (Hanmi Science Co., Ltd, priority 2010, dated 2014).
Where a name gives a salt, the structure may show the parent alone.

Tests used:
[1] = tested on: MDA-MB-231 breast cancer cell lines; assay: Evaluation of inhibition on cell growth (MTS); type: cell-based; settings: Homo sapiens, MDA-MB-231, 120 hours
Procedure: (§1) MDA-MB-231 breast cancer cell lines (ATCC #HTB-26) and BxPC-3 pancreas cancer cell lines (ATCC #CRL 1687), which have been reported to express XIAP, were obtained from ATCC (American type culture collection; Rockville, Md.). MDA-MB-231 cell lines were incubated in L-15 medium supplemented with 10% FBS and 1% penicillin/streptomycin (Gibco BRL) at a T-75 cm^2 growth flask. In addition, BxPC-3 cell lines were incubated in RPMI medium supplemented with 10% FBS and 1% penicillin/streptomycin. For experiments of toxicity to normal cells, fibroblasts Hs27 (ATCC #CRL 1634) and Balb/c3t3 (ATCC #CCL 163) were used. The various cell lines were transferred into 96-well plates at a density of 3,000˜5,000 cells/100 μL, and cultured for 24 hours under conditions of 37° C., 5% CO2, 95% air, and 100% relative humidity (MDA-MB-231 cells were cultured under atmospheric conditions). The cells were treated with 10 μM˜0.1 nM of test compounds, and MDA-MB-231, BxPC-3, and normal cell lines were cultured for 120, 96, and 72 hours, respectively.
(§2) Cell viabilities of MDA-MB-231 cell lines were measured at an absorbance of 490 nm using CellTiter 96™ AQueous One Solution Cell proliferation Assay (MTS, Promega), and cell viabilities of BxPC-3 and normal cell lines were measured by fixing cells with 10% TCA (trichloroacetic acid), staining with SRB (sulforhodamine B), and measuring at 540 nm. From the values, GI50 values in which test compounds reduce the growth of cancer cells by 50% were calculated. The growth rates of cancer cells were calculated from following Equation 1 or 2. [(Ti−Tz)/(C−Tz)]×100 (for Ti>=Tz) [Equation 1] [(Ti−Tz)/Tz]×100 (for Ti<Tz) [Equation 2] In Equations 1 and 2, Tz refers to a density of untreated cells, which is an absorbance in 0% cell growth groups. C refers to a density of cells cultured by adding only medium, and Ti refers to a density of cells treated with test compounds.
(§3) GI50 value is the concentration of a test compound when the value of Equation 1 is 50, which indicates the concentration of test compound required to inhibit the cancer cells by 50%. On each measurement, test compounds were compared with a control.
(§4) The activity value of each compound (GI50 value) was shown in Table 5, and an IAP antagonist was used as a control.
(§5) In the activity measurement on MDA-MB-231 breast cancer cell lines, the values were represented as “***” for 100 nM or less, “**” for over 100 nM to below 1,000 nM, and “*” for 1,000 nM or more. In the measurement on normal cell lines, Balb/C and Hs27, the values were represented as “+++” for 10,000 nM or more, “++” for over 5,000 nM to below 10,000 nM, and “+” for 5,000 nM or less.

[2] = Toxicity to normal cells (SRB); type: cell-based, human; settings: human, Hs27 fibroblasts (normal cell line)
Procedure: as §1, §2, §3, §4, §5

| SMILES | GI50 [1] [nM] | GI50 at 72 h [2] [nM] |
| --- | --- | --- |
| CN[C@@H](C)C(=O)N[C@H](C(=O)N1CCC[C@H]1C(=O)Nc1cc2c(Nc3ccc(Cn4ccnc4)cc3)ncnc2cc1OC)C(C)(C)C [Example 111, (S)—N-(4-((4-((1H-imidazol-1-yl)methyl)phenyl)amino)-7-methoxyquinazolin-6-yl)-1-((S)-3,3-dimethyl-2-((S)-2-(methylamino)propanamido)butanoyl)pyrrolidine-2-carboxamide hydrochloride] | 100 to 1000 | > 10000 |
| C#CCOc1ccc(Nc2ncnc3cc(OC)c(NC(=O)[C@@H]4CCCN4C(=O)[C@@H](NC(=O)[C@H](C)NC)C(C)(C)C)cc23)cn1 [Example 84, (S)-1-((S)-3,3-dimethyl-2-((S)-2-(methylamino)propanamido)butanoyl)-N-(7-methoxy-4-((6-(prop-2-yn-1-yloxy)pyridin-3-yl)amino)quinazolin-6-yl)pyrrolidine-2-carboxamide hydrochloride] | 100 to 1000 | > 10000 |
| CN[C@@H](C)C(=O)N[C@H](C(=O)N1CCC[C@H]1C(=O)Nc1cc2c(Nc3ccc(N4CCC(N5CCN(C)CC5)CC4)cc3)ncnc2cc1OC)C(C)(C)C [Example 105, (S)-1-((S)-3,3-dimethyl-2-((S)-2-(methylamino)propanamido)butanoyl)-N-(7-methoxy-4-((4-(4-(4-methylpiperazin-1-yl)piperidin-1-yl)phenyl)amino)quinazolin-6-yl)pyrrolidine-2-carboxamide hydrochloride] | ≤ 100 | > 10000 |
| CN[C@@H](C)C(=O)N[C@H](C(=O)N1CCC[C@H]1C(=O)Nc1cc2c(Nc3ccc(N4CCN(C)CC4)c(Cl)c3)ncnc2cc1OC)C(C)(C)C [Example 86, (S)—N-(4-((3-chloro-4-(4-methylpiperazin-1-yl)phenyl)amino)-7-methoxyquinazolin-6-yl)-1-((S)-3,3-dimethyl-2-((S)-2-(methylamino)propanamido)butanoyl)pyrrolidine-2-carboxamide hydrochloride] | ≤ 100 | > 10000 |
| CN[C@@H](C)C(=O)N[C@H](C(=O)N1CCC[C@H]1C(=O)Nc1cc2c(Nc3ccc(Cl)nc3)ncnc2cc1OC)C(C)(C)C [Example 79, (S)—N-(4-((6-chloropyridin-3-yl)amino)-7-methoxyquinazolin-6-yl)-1-((S)-3,3-dimethyl-2-((S)-2-(methylamino)propanamido)butanoyl)pyrrolidine-2-carboxamide hydrochloride] | ≤ 100 | > 10000 |
| CCCN1CCN(c2ccc(Nc3ncnc4cc(OC)c(NC(=O)[C@@H]5CCCN5C(=O)[C@@H](NC(=O)[C@H](C)NC)C(C)(C)C)cc34)cc2Cl)CC1 [Example 98, (S)—N-(4-((3-chloro-4-(4-propyl-1-yl)phenyl)amino)-7-methoxyquinazolin-6-yl)-1-((S)-3,3-dimethyl-2-((S)-2-(methylamino)propanamido)butanoyl)pyrrolidine-2-carboxamide hydrochloride] | ≤ 100 | > 10000 |
| CN[C@@H](C)C(=O)N[C@H](C(=O)N1CCC[C@H]1C(=O)Nc1cc2c(Nc3ccc(C4CCCN(C)C4)cc3)ncnc2cc1OC)C(C)(C)C (stereo partly drawn) [Example 109, (2S)-1-((S)-3,3-dimethyl-2-((S)-2-(methylamino)propanamido)butanoyl)-N-(7-methoxy-4-((4-(1-methylpiperidin-3-yl)phenyl)amino)quinazolin-6-yl)pyrrolidine-2-carboxamide hydrochloride] | ≤ 100 | > 10000 |
| CN[C@@H](C)C(=O)N[C@H](C(=O)N1CCC[C@H]1C(=O)Nc1cc2c(Nc3ccc(OCc4ccccn4)c(Cl)c3)ncnc2cc1OC)C(C)(C)C [Example 102, (S)—N-(4-((3-chloro-4-(pyridin-2-ylmethoxy)phenyl)amino)-7-methoxyquinazolin-6-yl)-1-((S)-3,3-dimethyl-2-((S)-2-(methylamino)propanamido)butanoyl)pyrrolidine-2-carboxamide hydrochloride] | ≤ 100 | > 10000 |
| CN[C@@H](C)C(=O)N[C@H](C(=O)N1CCC[C@H]1C(=O)Nc1cc2c(NC3CCC(N4CCC(C)CC4)CC3)ncnc2cc1OC)C(C)(C)C (stereo partly drawn) [Example 107, (S)-1-((S)-3,3-dimethyl-2-((S)-2-(methylamino)propanamido)butanoyl)-N-(7-methoxy-4-((4-(4-methylpiperidin-1-yl)cyclohexyl)amino)quinazolin-6-yl)pyrrolidine-2-carboxamide hydrochloride] | 100 to 1000 | > 10000 |
| CN[C@@H](C)C(=O)N[C@H](C(=O)N1CCC[C@H]1C(=O)Nc1cc2c(Nc3ccc(N4CCCCC4)c(F)c3)ncnc2cc1OC)C(C)(C)C [Example 85, (S)-1-((S)-3,3-dimethyl-2-((S)-2-(methylamino)propanamido)butanoyl)-N-(4-((3-fluoro-4-(piperidin-1-yl)phenyl)amino)-7-methoxyquinazolin-6-yl)pyrrolidine-2-carboxamide hydrochloride] | ≤ 100 | > 10000 |
| CN[C@@H](C)C(=O)N[C@H](C(=O)N1CCC[C@H]1C(=O)Nc1cc2c(Nc3cccc(Cl)c3Cl)ncnc2cc1OC)C(C)(C)C [Example 81, (S)—N-(4-((2,3-dichlorophenyl)amino)-7-methoxyquinazolin-6-yl)-1-((S)-3,3-dimethyl-2-((S)-2-(methylamino)propanamido)butanoyl)pyrrolidine-2-carboxamide hydrochloride] | ≤ 100 | > 10000 |
| CN[C@@H](C)C(=O)N[C@H](C(=O)N1CCC[C@H]1C(=O)Nc1cc2c(Nc3ccc(-n4ccnc4)cc3)ncnc2cc1OC)C(C)(C)C [Example 88, (S)—N-(4-((4-(1H-imidazol-1-yl)phenyl)amino)-7-methoxyquinazolin-6-yl)-1-((S)-3,3-dimethyl-2-((S)-2-(methylamino)propanamido)butanoyl)pyrrolidine-2-carboxamide hydrochloride] | ≤ 100 | > 10000 |

More lines, main results first:

| GI50 [1] [nM] | SMILES | GI50 at 72 h [2] [nM] |
| --- | --- | --- |
| ≤ 100 | CN[C@@H](C)C(=O)N[C@H](C(=O)N1CCC[C@H]1C(=O)Nc1cc2c(Nc3ccc(N4CCN(C5CCN(C)CC5)CC4)cc3)ncnc2cc1OC)C(C)(C)C [Example 110, hydrochloride] | > 10000 |
| ≤ 100 | CN[C@@H](C)C(=O)N[C@H](C(=O)N1CCC[C@H]1C(=O)Nc1cc2c(Nc3ccc(N4CCCCC4)c(Cl)c3)ncnc2cc1OC)C(C)(C)C [Example 96, (S)—N-(4-((3-chloro-4-(piperidin-1-yl)phenyl)amino)-7-methoxyquinazolin-6-yl)-1-((S)-3,3-dimethyl-2-((S)-2-(methylamino)propanamido)butanoyl)pyrrolidine-2-carboxamide hydrochloride] | > 10000 |
| ≤ 100 | CN[C@@H](C)C(=O)N[C@H](C(=O)N1CCC[C@H]1C(=O)Nc1cc2c(NCC3CCCCC3)ncnc2cc1OC)C(C)(C)C [Example 77, (S)—N-(4-(cyclohexylmethyl)amino)-7-methoxyquinazolin-6-yl)-1-((S)-3,3-dimethyl-2-((S)-2-(methylamino)propanamido)butanoyl)pyrrolidine-2-carboxamide hydrochloride] | > 10000 |
| ≤ 100 | CN[C@@H](C)C(=O)N[C@H](C(=O)N1CCC[C@H]1C(=O)Nc1cc2c(Nc3ccc(F)cc3Br)ncnc2cc1OC)C(C)(C)C [Example 82, (S)—N-(4-((2-bromo-4-fluorophenyl)amino)-7-methoxyquinazolin-6-yl)-1-((S)-3,3-dimethyl-2-((S)-2-(methylamino)propanamido)butanoyl)pyrrolidine-2-carboxamide hydrochloride] | > 10000 |
| ≤ 100 | CN[C@@H](C)C(=O)N[C@H](C(=O)N1CCC[C@H]1C(=O)Nc1cc2c(Nc3ccc(N4CCCC4)c(Cl)c3)ncnc2cc1OC)C(C)(C)C [Example 113, (S)—N-(4-((3-chloro-4-(pyrrolidin-1-yl)phenyl)amino)-7-methoxyquinazolin-6-yl)-1-((S)-3,3-dimethyl-2-((S)-2-(methylamino)propanamido)butanoyl)pyrrolidine-2-carboxamide] | > 10000 |
